Source: patent publication US10167262B2, “Herbicidal substituted 3-arylpyrazoles” (FMC CORPORATION, priority 2014, dated 2019)
Like-named read-outs stand apart in the source and are kept apart here.

Experiments:
Type in all cases: in vivo
[1] = system: Italian ryegrass (Lolium multiflorum); test: Test C pre-/postemergence greenhouse test, plant response rating 0-100; conditions: Lolium multiflorum; for pest or weed control at 62 g/ha: 62 g ai/ha; for pest or weed control at 125 g/ha: 125 g ai/ha; for pest or weed control at 250 g/ha: 250 g ai/ha
Summary of the method: (§1)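 Scores run from 0, no effect, to 100, complete control, assigned by eye after treated plants and controls spent 13 to 15 days in a greenhouse. Soil-applied treatment went onto freshly sown seed in loam and sand; foliar treatment hit seedlings at the 1- to 4-leaf stage.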

[2] = system: giant foxtail (Setaria faberii); test: as above; conditions: Setaria faberi; for pest or weed control at 62 g/ha: 62 g ai/ha; for pest or weed control at 125 g/ha: 125 g ai/ha; for pest or weed control at 250 g/ha: 250 g ai/ha
Summary of the method: as §1

[3] = system: soybean (Glycine max); test: as above; conditions: Glycine max; for plant injury at 62 g/ha: 62 g ai/ha; for plant injury at 125 g/ha: 125 g ai/ha; for plant injury at 250 g/ha: 250 g ai/ha
Summary of the method: as §1

[4] = system: chickweed (common chickweed, Stellaria media); test: Test C postemergence greenhouse test, plant response rating 0-100; conditions: Stellaria media, post-emergence
Summary of the method: (§2)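 Postemergence spray onto 1–4-leaf potted seedlings, greenhouse incubation 13–15 days. Visual percent-control rating (0–100) against untreated plants.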

[5] = system: kochia (Kochia scoparia); test: as above; conditions: Bassia scoparia, post-emergence
Summary of the method: as §2

[6] = system: wild oat (Avena fatua); test: as above; conditions: Avena fatua, post-emergence
Summary of the method: as §2

[7] = system: corn (Zea mays); test: Test A pre-/postemergence greenhouse herbicide test, visual injury rating 0-100; conditions: for plant injury at 500 g/ha: 500 g ai/ha
Summary of the method: (§3)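 Visual injury versus untreated controls, scored about 10 days after treatment on a 0 to 100 scale (0 = no effect, 100 = complete control). Applications were preemergence directed soil spray plus postemergence spray at one- to two-leaf stage, 2 to 10 cm plants.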

[8] = system: pigweed (Amaranthus retroflexus); test: as above; conditions: for pest or weed control at 500 g/ha: 500 g ai/ha
Summary of the method: as §3

[9] = system: barnyardgrass (Echinochloa crus-galli); test: as above; conditions: for pest or weed control at 500 g/ha: 500 g ai/ha
Summary of the method: as §3

[10] = system: giant foxtail (Setaria faberii); test: as above; conditions: for pest or weed control at 500 g/ha: 500 g ai/ha
Summary of the method: as §3

[11] = system: velvetleaf (Abutilon theophrasti); test: as above; conditions: for pest or weed control at 500 g/ha: 500 g ai/ha
Summary of the method: as §3

[12] = system: wheat (Triticum aestivum); test: as above; conditions: for plant injury at 500 g/ha: 500 g ai/ha
Summary of the method: as §3

[13] = system: large (Lg) crabgrass (Digitaria sanguinalis); test: as above; conditions: for pest or weed control at 500 g/ha: 500 g ai/ha
Summary of the method: as §3

[14] = system: morningglory (Ipomoea spp.); test: as above; conditions: for pest or weed control at 500 g/ha: 500 g ai/ha
Summary of the method: as §3

[15] = post-emergence, Postemergence, read-out: Plant response rating (0 to 100), Ryegrass, Italian
[16] = post-emergence, Postemergence, scale 0 to 100
[17] = post-emergence, Postemergence, 500 g ai/ha, scale 0 to 100
[18] = pre-emergence, Preemergence, read-out: Plant response rating, Ryegrass, Italian
[19] = post-emergence, Postemergence, read-out: Plant response rating (0 to 100), Foxtail, Giant
[20] = pre-emergence, Preemergence, read-out: Plant response rating, Foxtail, Giant
[21] = post-emergence, Postemergence, read-out: Plant response rating (0 to 100), Soybean
[22] = pre-emergence, Preemergence, read-out: Plant response rating, Soybean

O=C(c1ccccc1)c1cn(CO)nc1-c1cc(Cl)cc(Cl)c1 [Compound 15, [3-(3,5-dichlorophenyl)-1-(hydroxymethyl)-1H-pyrazol-4-yl]phenylmethanone]
pest or weed control at 62 g/ha [1, 15]: 0% | pest or weed control at 125 g/ha [1, 15]: 0% | pest or weed control at 250 g/ha [1, 16]: 0% | pest or weed control at 500 g/ha [1, 17]: 0% | pest or weed control at 62 g/ha [1, 18]: 0% | pest or weed control at 125 g/ha [1, 18]: 0% | pest or weed control at 250 g/ha ([1]; pre-emergence, Preemergence): 0% | pest or weed control at 62 g/ha [2, 19]: 0% | pest or weed control at 125 g/ha [2, 19]: 0% | pest or weed control at 250 g/ha [2, 16]: 0% | pest or weed control at 500 g/ha [2, 17]: 10% | pest or weed control at 31 g/ha ([2]; pre-emergence, Preemergence, 31 g ai/ha, read-out: Plant response rating, Foxtail, Giant): 0% | pest or weed control at 62 g/ha [2, 20]: 0% | pest or weed control at 125 g/ha [2, 20]: 0% | pest or weed control at 250 g/ha ([2]; pre-emergence, Preemergence): 0% | plant injury at 62 g/ha [3, 21]: 0% | plant injury at 125 g/ha [3, 21]: 0% | plant injury at 250 g/ha [3, 16]: 0% | plant injury at 500 g/ha [3, 17]: 5% | plant injury at 62 g/ha [3, 22]: 0% | plant injury at 125 g/ha [3, 22]: 0% | plant injury at 250 g/ha ([3]; pre-emergence, Preemergence): 0% | pest or weed control at 62 g/ha ([4]; 62 g ai/ha): 95% | pest or weed control at 125 g/ha ([4]; 125 g ai/ha): 95% | pest or weed control at 250 g/ha ([4]; 250 g ai/ha, scale 0 to 100): 100% | pest or weed control at 500 g/ha ([4]; 500 g ai/ha, scale 0 to 100): 100% | pest or weed control at 62 g/ha ([5]; 62 g ai/ha): 70% | pest or weed control at 125 g/ha ([5]; 125 g ai/ha): 85% | pest or weed control at 250 g/ha ([5]; 250 g ai/ha, scale 0 to 100): 85% | pest or weed control at 500 g/ha ([5]; 500 g ai/ha, scale 0 to 100): 90% | pest or weed control at 62 g/ha ([6]; 62 g ai/ha): 0% | pest or weed control at 125 g/ha ([6]; 125 g ai/ha): 0% | pest or weed control at 250 g/ha ([6]; 250 g ai/ha, scale 0 to 100): 0% | pest or weed control at 500 g/ha ([6]; 500 g ai/ha, scale 0 to 100): 0% | Corn plant response rating (0 = no effect, 100 = complete control) ([7]; Preemergence, 125 g ai/ha): 0 | plant injury at 125 g/ha ([7]; Zea mays, post-emergence, 240 h, Postemergence, 125 g ai/ha, read-out: Plant response rating (0 to 100 scale), Corn): 0% | plant injury at 500 g/ha ([7]; Zea mays, post-emergence, 240 h, Postemergence, read-out: Plant response rating (0 to 100 scale), Corn): 0% | plant injury at 500 g/ha ([7]; Zea mays, pre-emergence, 240 h, Preemergence, read-out: Plant response rating (0 to 100 scale), Corn): 0% | pest or weed control at 125 g/ha ([8]; Amaranthus retroflexus, post-emergence, 240 h, Postemergence, 125 g ai/ha, read-out: Plant response rating (0 to 100 scale), Pigweed): 80% | pest or weed control at 500 g/ha ([8]; Amaranthus retroflexus, post-emergence, 240 h, Postemergence, read-out: Plant response rating (0 to 100 scale), Pigweed): 90% | pest or weed control at 500 g/ha ([8]; Amaranthus retroflexus, pre-emergence, 240 h, Preemergence, read-out: Plant response rating (0 to 100 scale), Pigweed): 100% | Pigweed plant response rating (0 = no effect, 100 = complete control) ([8]; Preemergence, 125 g ai/ha): 20 | pest or weed control at 125 g/ha ([9]; Echinochloa crus-galli, post-emergence, 240 h, Postemergence, 125 g ai/ha, read-out: Plant response rating (0 to 100 scale), Barnyardgrass): 0% | pest or weed control at 500 g/ha ([9]; Echinochloa crus-galli, post-emergence, 240 h, Postemergence, read-out: Plant response rating (0 to 100 scale), Barnyardgrass): 0% | pest or weed control at 500 g/ha ([9]; Echinochloa crus-galli, pre-emergence, 240 h, Preemergence, read-out: Plant response rating (0 to 100 scale), Barnyardgrass): 0% | Barnyardgrass plant response rating (0 = no effect, 100 = complete control) ([9]; Preemergence, 125 g ai/ha): 0 | Foxtail, Giant plant response rating (0 = no effect, 100 = complete control) ([10]; Preemergence, 125 g ai/ha): 0 | pest or weed control at 125 g/ha ([10]; Setaria faberi, post-emergence, 240 h, Postemergence, 125 g ai/ha, read-out: Plant response rating (0 to 100 scale), Foxtail, Giant): 0% | pest or weed control at 500 g/ha ([10]; Setaria faberi, post-emergence, 240 h, Postemergence, read-out: Plant response rating (0 to 100 scale), Foxtail, Giant): 0% | pest or weed control at 500 g/ha ([10]; Setaria faberi, pre-emergence, 240 h, Preemergence, read-out: Plant response rating (0 to 100 scale), Foxtail, Giant): 0% | pest or weed control at 125 g/ha ([11]; Abutilon theophrasti, post-emergence, 240 h, Postemergence, 125 g ai/ha, read-out: Plant response rating (0 to 100 scale), Velvetleaf): 80% | pest or weed control at 500 g/ha ([11]; Abutilon theophrasti, post-emergence, 240 h, Postemergence, read-out: Plant response rating (0 to 100 scale), Velvetleaf): 90% | pest or weed control at 500 g/ha ([11]; Abutilon theophrasti, pre-emergence, 240 h, Preemergence, read-out: Plant response rating (0 to 100 scale), Velvetleaf): 90% | Velvetleaf plant response rating (0 = no effect, 100 = complete control) ([11]; Preemergence, 125 g ai/ha): 40 | Wheat plant response rating (0 = no effect, 100 = complete control) ([12]; Preemergence, 125 g ai/ha): 0 | plant injury at 125 g/ha ([12]; Triticum aestivum, post-emergence, 240 h, Postemergence, 125 g ai/ha, read-out: Plant response rating (0 to 100 scale), Wheat): 0% | plant injury at 500 g/ha ([12]; Triticum aestivum, post-emergence, 240 h, Postemergence, read-out: Plant response rating (0 to 100 scale), Wheat): 0% | plant injury at 500 g/ha ([12]; Triticum aestivum, pre-emergence, 240 h, Preemergence, read-out: Plant response rating (0 to 100 scale), Wheat): 0% | pest or weed control at 125 g/ha ([13]; Digitaria sanguinalis, post-emergence, 240 h, Postemergence, 125 g ai/ha, read-out: Plant response rating (0 to 100 scale), Crabgrass, Large): 0% | pest or weed control at 500 g/ha ([13]; Digitaria sanguinalis, post-emergence, 240 h, Postemergence, read-out: Plant response rating (0 to 100 scale), Crabgrass, Large): 0% | pest or weed control at 500 g/ha ([13]; Digitaria sanguinalis, pre-emergence, 240 h, Preemergence, read-out: Plant response rating (0 to 100 scale), Crabgrass, Large): 0% | Crabgrass, Large plant response rating (0 = no effect, 100 = complete control) ([13]; Preemergence, 125 g ai/ha): 0 | pest or weed control at 125 g/ha ([14]; Ipomoea, post-emergence, 240 h, Postemergence, 125 g ai/ha, read-out: Plant response rating (0 to 100 scale), Morningglory): 0% | pest or weed control at 500 g/ha ([14]; Ipomoea, post-emergence, 240 h, Postemergence, read-out: Plant response rating (0 to 100 scale), Morningglory): 0% | pest or weed control at 500 g/ha ([14]; Ipomoea, pre-emergence, 240 h, Preemergence, read-out: Plant response rating (0 to 100 scale), Morningglory): 0% | Morningglory plant response rating (0 = no effect, 100 = complete control) ([14]; Preemergence, 125 g ai/ha): 0
